Results reported in PMC9944496 (Food Chemistry: X, 2023).

Molecular target: T1, AbXOD (Acinetobacter baumannii xanthine oxidase; "wild-type" = AbXDH Y351V) (Acinetobacter baumannii, UniProt A0A0U3AJU6)
T1 construct: gene xdhB
Details: 50 mmol/L Tris/HCl pH 8.5, 40 °C; apparent Km; paper's wild-type carries Y351V in A subunit; substrate inhibition constant; second site

Compound: O=c1[nH]c(=O)c2[nH]cnc2[nH]1 [xanthine]
- Ki: 21.11 mM
